Data from US10251860B2, “Compounds for bone healing” (University of Pittsburgh—Of the Commonwealth System of …, priority 2015, dated 2019).

Legend:
[1] = tested on: Brine shrimp; experiment: Brine shrimp toxicity assay; assay type: in vivo
Method: General procedure for brine shrimp toxicity assays. Sample preparation. Stock solutions of 3 were prepared by dissolving 3 (50.0 mg) in 5.0 HPLC grade water (5.0 mL), (solution A) and 3 (2.50 g) in HPLC grade water (10.0 mL) (solution B). Stock solutions of DMSO were prepared by diluting DMSO (45 μL) with HPLC grade water (5.0 mL) (solution C) and DMSO (2.27 mL) with HPLC grade water (10.0 mL) (solution D).
In each case, 5 replicates were performed. Each replicate was performed in a 2 dram vial marked at the 4 and 5 mL volume points. To each vial was added artificial sea water (3 mL) followed by the appropriate volume of stock solution. For set 1 (1.0 mg/mL), solution A (0.500 mL) or solution C (0.500 mL) was added. For set 2 (5.0 mg/mL), solution B (0.100 mL) or solution D (0.100 mL) was added to each vial. For set 3 (20.0 mg/mL), solution B (0.400 mL) or solution D (0.400 mL) was added to each vial. For set 4 (50.0 mg/mL), solution B (1.00 mL) or solution D (1.00 mL) was added to each vial. Controls containing HPLC grade water (0.100 mL, 0.400 mL, and 1.00 mL) were prepared in the same manner, and five replicates of each control were prepared.
Brine shrimp eggs (San Francisco Bay Brand) were hatched in a commercial salt mixture (Instant Ocean). Constant aeration was provided using a pump and airstone, and illumination was maintained using a desk lamp. The shrimp were collected in a separate tank after 48 hours and used within 3-4 hours of collection.
Brine shrimp were added to each vial using a plastic transfer pipet. After the shrimp were transferred, artificial sea-water was added until the volume reached the 5-mL mark. One drop of a yeast suspension prepared by suspending 11 mg yeast in sea-water (20 mL) was added to each vial. The shrimp were counted at t=24 hours. Another drop of freshly prepared yeast solution (6 mg in 10 mL sea water) was added, the vials were maintained under illumination, and shrimp were counted at t=48 hours.

[2] = tested on: breast cancer cell line (MDA-MB-231); assay type: cell-based
Text: (§1) The cellular toxicity of sulfoxide 3 was further determined for a breast cancer cell line (MDA-MB-231) and a liver cell line (HepG2).

[3] = tested on: liver cell line (HepG2); assay type: cell-based
Text: as §1

[4] = tested on: bone marrow stromal cell line derived from C57BL/6NTac mice; experiment: In vitro clonogenic radiation survival curves; assay type: cell-based, mouse; conditions: 0 to 8 Gy
Method: FIG. 12A is a graph of surviving fraction versus radiation dose, illustrating the in vitro radioprotection and mitigation of bone marrow stromal cells. In vitro survival curves were performed using a bone marrow stromal cell line derived from C57BL/6NTac mice. Cells were incubated in 100 μM MMS350 for one hour before irradiation or was added to the cells 10 min after irradiation. Cells were irradiated to doses ranging from 0 to 8 Gy, plated in 4 well tissue culture plates, incubated for 7 days at 37° C. in a humidified CO2 incubator, and stained with crystal violet. Colonies of greater than 50 cells were counted and analyzed using a linear quadratic model or single-hit, multi-target model.
The murine C57BL/6 bone marrow stromal cell line (Epperly M W, Sikora C A, Defilippi S, Gretton J E, Greenberger J S. Bone marrow origin of myofibroblasts in irradiation pulmonary fibrosis. Am J Resp Molecular Cell Biology 2003; 29:213-224) and its use in clonogenic radiation survival curves has been described (Epperly M W, Gretton J E, Bernarding M, Nie S, Rasul B, Greenberger J S. Mitochondrial localization of copper/zinc superoxide dismutase (Cu/ZnSOD) confers radioprotective functions in vitro and in vivo. Radiation Research 2003; 160:568-578).
Cell lines were irradiated at dose rate of 70 cGy per minute using a Cesium Gamma Cell Irradiator according to published methods. […]

[5] = tested on: 32D cl 3 cells; experiment: Irradiated 32D cl 3 cells, cell count and viability; assay type: cell-based, murine; conditions: 10 μM, 0-7 Gy, day 3 or 5 after irradiation
Method: FIGS. 10A-10D provide data from a screening experiment where 32D cl 3 cells were irradiated to doses of 0, 1, 3, 5, or 7 Gy and placed in T25 flasks. Either JP4-039 or MM350 were added at 10 μM and incubated in a CO2 incubator at 37° C. At Day 3 or 5 after irradiation, the cells were counted and the viability determined.

[6] = tested on: 320 cl 3 murine hematopoietic cells; experiment: Apoptotic markers after 5 Gy irradiation in vitro; assay type: cell-based; conditions: 24 hours after irradiation
Text: Caspase-3 cleavage and Parpl cleavage illustrated the effects on apoptosis. […] Materials and Methods: Overall Design of Studies (Table 7).

[7] = Compound storage in 25% w/w solutions of 3 and NMP; assay type: physicochemical; conditions: 25% w/w 3 in NMP, −20° C.
Method: Because sulfoxide 3 is a solid, it would have to be mixed with an appropriate water-soluble cosolvent to act as a compound storage additive. NMP was chosen for exploring this potential application due to its thermal stability and low toxicity. […] The compound test set (FIG. 2) was stored in 25% w/w solutions of 3 and NMP for 6 weeks at −20° C.

Compound: CC1(C[S+]([O-])CC2(C)COC2)COC1 [Compound 3, 3,3′-Sulfinylbis(methylene)bis(3-methyloxetane)]
- % Mortality after 24 h ([1]; 1 mg/mL): 0%
- % Mortality after 48 h ([1]; 1 mg/mL): 0%
- % Mortality after 24 h ([1]; 5 mg/mL): 0%
- % Mortality after 48 h ([1]; 5 mg/mL): 0%
- % Mortality after 24 h ([1]; 20 mg/mL): 0-10%
- % Mortality after 48 h ([1]; 20 mg/mL): 0-10%
- % Mortality after 24 h ([1]; 50 mg/mL): 85%
- % Mortality after 48 h ([1]; 50 mg/mL): 100%
- mortality after 48 hours ([1]; concentrations up to 20 mg/mL): < 10%
- GI50 [2]: ~200 mM
- GI50 [3]: ~200 mM
- D0 ([4]; 100 μM MMS350 added 10 min after irradiation, control 1.9±0.1, p=0.0444): 2.4±0.3
- shoulder on the survival curve (ñ) ([4]; 100 μM MMS350 for one hour before irradiation, control 5.8±1.1, p=0.0039): 14.9±2.9
- number of cells and viability [5]: comparable to JP4-039
- 1C3-1/11 conversion (autophagy) ([6]; 5 Gy): no difference
- H2AX phosphorylation (DNA strand break repair) ([6]; 5 Gy): more prominent with MMS-350 than JP4-038
- mitochondrial markers of apoptosis ([6]; one-hour before or 30-minutes after 5 Gy): reduced mitochondrial markers of apoptosis
- precipitation on storage [7]: partly precipitated from the solution
